Some results are limits rather than exact numbers.

The test system of the first assay is U2OS_Bim cells. In words: Apoptosis inhibition assay (Bim-induced apoptosis, cell viability by ATP level). Format: cell-based. The settings on record: U2OS_Bim cells; estimated (*Est.) / preliminary results; numbering of Tables 4a/4b; read-out: EC50. The essentials: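 Apoptosis was triggered by doxycycline (0.1 μg/mL) induction of Bim, one hour after compound addition to U2OS_Bim cells. Survival was measured after 24 h from cellular ATP (CellTiter-Glo), relative to DMSO, with zVAD at 20 μM as rescue control. Data are duplicate means, some estimated from preliminary results.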
With `Cc1cc(-c2cc(F)c(=O)n(Cc3ccc4c(c3)OCO4)c2)nc(S(=O)(=O)CCC(OCc2cncn2C)c2ccccc2)n1` (stereo not drawn) [Compound 404], the half-maximal effective concentration (EC50) was 0.001 to 1 µM.

As for `Cc1cc(-c2cc(F)c(=O)n(Cc3ccc4c(c3)OCO4)c2)nc(S(=O)(=O)CCC(OCc2ccccc2F)C(C)(C)C)n1` (stereo not drawn) [Compound 400], the EC50 is 0.001 to 1 µM.

Turning to `Cc1cc(-c2cc(F)c(=O)n(Cc3ccc4nnn(C)c4c3)c2)nc(S(=O)(=O)CCCC(=O)N(c2ccccc2)C2CC2)n1` [Compound 375], the EC50 was 0.001 to 1 µM.

As for `Cc1cc(-c2cc(F)c(=O)n(Cc3ccc4c(c3)OCO4)c2)nc(S(=O)(=O)CCC(OCc2ccccc2F)c2ccc3ncccc3c2)n1` (stereo not drawn) [Compound 391], the EC50 is 0.001 to 1 µM.

As to `Cc1cc(-c2cc(F)c(=O)n(Cc3ccc4c(c3)OCO4)c2)nc(S(=O)(=O)CCC(OCc2ccccc2F)c2ccc3ccoc3c2)n1` (stereo not drawn) [Compound 394], the EC50 was 0.001 to 1 µM.

Staying with this assay, now noted: U2OS_Bim cells; estimated based on preliminary results; numbering of Tables 4a/4b; read-out: EC50.
For the molecule `CCc1cc(Cn2cc(-c3cc(C(F)(F)F)nc(S(C)(=O)=O)n3)ccc2=O)ccc1OC` [Compound 262], the EC50 is less than 10 µM.

For the molecule `COc1ccc(Cn2cc(-c3cc(C(F)(F)F)nc([S+]([O-])Cc4ccncc4)n3)ccc2=O)cc1OC` (stereo not drawn) [Compound 191], the EC50 was less than 10 µM.

Take `COc1ccc(Cn2cc(-c3cc(C(F)(F)F)nc([S+]([O-])CN(C)C)n3)ccc2=O)cc1OC` (stereo not drawn) [Compound 200]: the EC50 was less than 10 µM.

As for `COc1ccc(Cn2cc(-c3cc(-n4ccnc4)nc(S(C)(=O)=O)n3)ccc2=O)cc1OC` [Compound 222], the EC50 was less than 10 µM.

The assay is the same for the next values; noted with them: U2OS_Bim cells; means of duplicates; numbering of Tables 4a/4b.
Regarding `C#CCOc1ccc(Cn2cc(-c3cc(C(F)(F)F)nc(S(C)(=O)=O)n3)ccc2=O)cc1OC` [Compound 130, 1-(3-methoxy-4-(prop-2-yn-1-yloxy)benzyl)-5-(2-(methylsulfonyl)-6-(trifluoromethyl)pyrimidin-4-yl)pyridin-2 (1H)-one], the EC50 was in the range of 0.001 to 1 µM.

The same assay, now with this note: U2OS_Bim cells; means of duplicates; numbering of Tables 4a/4b; read-out: EC50.
Take `Cc1cc(-c2cc(F)c(=O)n(CC3CCNCC3)c2)nc(S(=O)(=O)CCC(OCc2ccc(F)cc2F)c2ccccc2)n1` (stereo not drawn) [Compound 312, 5-(2-(3-(2,4-difluorobenzyloxy)-3-phenylpropylsulfonyl)-6-methylpyrimidin-4-yl)-3-fluoro-1-(piperidin-4-ylmethyl)pyridin-2 (1H)-one]: the EC50 was less than 100 µM.

As for `COc1ccc(Cn2cc(-c3cc(C)nc(S(C)(=O)=O)n3)cc(F)c2=O)cc1OC` [Compound 324, 1-(3,4-dimethoxybenzyl)-3-fluoro-5-(6-methyl-2-(methylsulfonyl)pyrimidin-4-yl)pyridin-2 (1H)-one], the EC50 was in the range of 1 to 10 µM.

With `Cc1cc(-c2cc(F)c(=O)n(Cc3cccc4c3OCO4)c2)nc(S(=O)(=O)CCC(OCc2ccccc2F)c2ccccc2)n1` (stereo not drawn) [Compound 320, 1-(benzo[d][1,3]dioxol-4-ylmethyl)-3-fluoro-5-(2-(3-(2-fluorobenzyloxy)-3-phenylpropylsulfonyl)-6-methylpyrimidin-4-yl)pyridin-2 (1H)-one], the EC50 was 0.001 to 1 µM.

Regarding `CCOc1cccc(Cn2cc(-c3cc(C)nc(S(=O)(=O)CCC(OCc4ccc(F)cc4F)c4ccccc4)n3)cc(F)c2=O)c1` (stereo not drawn) [Compound 311, 5-(2-((3-((2,4-difluorobenzyl)oxy)-3-phenylpropyl)sulfonyl)-6-methylpyrimidin-4-yl)-1-(3-ethoxybenzyl)-3-fluoropyridin-2 (1H)-one], the EC50 lay within 0.001 to 1 µM.

In the case of `Cc1cc(-c2cc(F)c(=O)n(Cc3ccc(Cl)c(Cl)c3)c2)nc([S+]([O-])CCC(OCc2ccc(F)cc2F)c2ccccc2)n1` (stereo not drawn) [Compound 315, 1-(3,4-dichlorobenzyl)-5-(2-(3-(2,4-difluorobenzyloxy)-3-phenylpropylsulfinyl)-6-methylpyrimidin-4-yl)-3-fluoropyridin-2 (1H)-one], the EC50 was less than 100 µM.

For the molecule `Cc1cc(-c2cc(F)c(=O)n(Cc3ccc4scnc4c3)c2)nc(S(=O)(=O)CCC(OCc2ccccc2F)c2ccccc2)n1` (stereo not drawn) [Compound 326, 1-(benzo[d]thiazol-5-ylmethyl)-3-fluoro-5-(2-(3-(2-fluorobenzyloxy)-3-phenylpropylsulfonyl)-6-methylpyrimidin-4-yl)pyridin-2 (1H)-one], the EC50 is 0.001 to 1 µM.

For the molecule `C[S+]([O-])c1nc(-c2ccn(Cc3cccc(C#N)c3)c2)cc(C(F)(F)F)n1` (stereo not drawn) [Compound 98, 3-((3-(2-(methylsulfinyl)-6-(trifluoromethyl)pyrimidin-4-yl)-1H-pyrrol-1-yl)methyl)benzonitrile], the EC50 is less than 100 µM.

In the case of `COc1ccc(Cn2cc(-c3cc(-n4cccn4)nc(S(C)(=O)=O)n3)ccc2=O)cc1OC` [Compound 139, 1-(3,4-dimethoxybenzyl)-5-(2-(methylsulfonyl)-6-(1H-pyrazol-1-yl)pyrimidin-4-yl)pyridin-2 (1H)-one], the EC50 lay within 1 to 10 µM.

For the molecule `C[S+]([O-])c1nc(-c2ccc(=O)n(Cc3ccc4c(c3Br)OCO4)c2)cc(C(F)(F)F)n1` (stereo not drawn) [Compound 138, 1-((4-bromobenzo[d][1,3]dioxol-5-yl)methyl)-5-(2-(methylsulfinyl)-6-(trifluoromethyl)pyrimidin-4-yl)pyridin-2 (1H)-one], the EC50 lay within 0.001 to 1 µM.

With `COc1cccc(Cn2ccc(-c3cc(C(F)(F)F)nc([S+](C)[O-])n3)c2)c1` (stereo not drawn) [Compound 90, 4-(1-(3-methoxybenzyl)-1H-pyrrol-3-yl)-2-(methylsulfinyl)-6-(trifluoromethyl)pyrimidine], the EC50 is less than 100 µM.

As for `CN(C)C(=O)c1cccc(-c2cc(C(F)(F)F)nc(S(C)(=O)=O)n2)c1` [Compound 69, N,N-dimethyl-3-(2-(methylsulfonyl)-6-(trifluoromethyl)pyrimidin-4-yl)benzamide], the EC50 was 1 to 10 µM.

Regarding `CS(=O)(=O)c1nc(-c2ccc(=O)n(Cc3cccc(Br)c3)c2)cc(C(F)(F)F)n1` [Compound 107, 1-(3-bromobenzyl)-5-(2-(methylsulfonyl)-6-(trifluoromethyl)pyrimidin-4-yl)pyridin-2 (1H)-one], the EC50 was in the range of 0.001 to 1 µM.

`C#Cc1cccc(Cn2cc(-c3cc(C(F)(F)F)nc(S(C)(=O)=O)n3)ccc2=O)c1` [Compound 120, 1-(3-ethynylbenzyl)-5-(2-(methylsulfonyl)-6-(trifluoromethyl)pyrimidin-4-yl) pyridin-2 (1H)-one]: the EC50 is 0.001 to 1 µM.

For `C#CCn1cc(-c2cc(C(F)(F)F)nc([S+](C)[O-])n2)ccc1=O` (stereo not drawn) [Compound 101, 5-(2-(methylsulfinyl)-6-(trifluoromethyl)pyrimidin-4-yl)-1-(prop-2-yn-1-yl) pyridin-2 (1H)-one], the EC50 lay in the range of 1 to 10 µM.

Take `CS(=O)(=O)c1nc(-c2ccc(=O)n(Cc3ccc(-c4ccccc4)cc3)c2)cc(C(F)(F)F)n1` [Compound 131, 1-([1,1′-biphenyl]-4-ylmethyl)-5-(2-(methylsulfonyl)-6-(trifluoromethyl)pyrimidin-4-yl)pyridin-2 (1H)-one]: the EC50 fell in the range of 0.001 to 1 µM.

Take `C#Cc1ccc(Cn2cc(-c3cc(C(F)(F)F)nc(S(C)(=O)=O)n3)ccc2=O)cc1` [Compound 122, 1-(4-ethynylbenzyl)-5-(2-(methylsulfonyl)-6-(trifluoromethyl)pyrimidin-4-yl)pyridin-2 (1H)-one]: the EC50 lay within 0.001 to 1 µM.

Turning to `Cc1ccc(-c2cc(C(F)(F)F)nc(S(C)(=O)=O)n2)cc1` [Compound 48, 2-(methylsulfonyl)-4-(p-tolyl)-6-(trifluoromethyl)pyrimidine], the EC50 was less than 100 µM.

The values above are taken from patent US11725000B2, “Apoptosis inhibitors” (National Institute of Biological Sciences, Beijing, priority 2017, dated 2023).
